Entries after “also recorded” stand apart in the source; their conditions may differ.
Assays:
Format in all cases: binding, SARS-CoV-2
R88A = tested on: R88A
R149A = tested on: R149A
H145A = tested on: H145A
NTD mutants = tested on: NTD mutants

Compound	Mutations SPR (% Inhibition/NTD wt) (R88A)	Mutations SPR (% Inhibition/NTD wt) (R149A)	Mutations SPR (% Inhibition/NTD wt) (H145A)	effect of NTD mutations on SPR signal, in words (NTD mutants)
COc1ccc2cc([C@H](C)C(=O)O)ccc2c1 [Naproxen, naproxen]	R88 (55%), R149 (44%)	R88 (55%), R149 (44%)		
Dihydrofolate [DHF]		H145 (96%), R149 (83%)	H145 (96%), R149 (83%)	Mutations H145A and R149A strongly reduced the signal; also recorded: strong effects of the mutations R92A, Y111A and R88A
RPKPQQF-OH [Substance P (1-7), Substance P (1-7) RPKPQQF-OH]				relatively small effects of the mutations with notable exceptions of W52A and Y111A

From publication PMC9698730 (Molecules, 2022)
